Assay results taken from patent US9822113B2, “Tricyclic compounds and process for preparation thereof” (Council of Scientific & Industrial Research, priority 2013, dated 2017).
Converted amounts (≈) assume the structure as drawn.

Tested on: Salmonella enterica strain AMC (ATCC #6539)
Test: Antibiotic assay: MIC by Promega Bac Titer-Glo microbial cell viability assay
Format: cell-based
Conditions: 24 hours treatment, inoculum ~5×10^4 CFU/mL, Mueller Hinton broth
Procedure: In a preferred embodiment, the novel a novel tricyclic compounds of formula (I) and formula (II) are evaluated for anti-microbial activity. The minimum inhibitory concentrations (MICs) is determined using the Promega Bac Titer-Glo microbial cell viability assay. The assays is carried out using Salmonella enterica strain AMC (ATCC #6539), Inocula of S. enterica prepared from 12-h broth cultures grown in Mueller Hinton broth and the suspensions were then adjusted to a turbidity of 0.5 McFarland. […] Bacterial cells were treated with hunanamycin analogs for 24 hours at ranges from 0.4 to 40 μg/mL and ciprofloxacin as a control ranging from 0.03 to 10 μg/mL. The OD600 measured using an Envision multi-modal plate reader (Perkin-Elmer, Inc.).
The minimum inhibitory concentrations (MICs) were determined using the Promega Bac Titer-Glo microbial cell viability assay, which measures cell viability by quantitation of ATP present, an indicator of metabolic activity of cells. The assays were carried out using Salmonella enterica strain AMC (ATCC #6539), Inocula of S. enterica were prepared from 12-h broth cultures grown in Mueller Hinton broth and the suspensions were then adjusted to a turbidity of 0.5 McFarland. […] Bacterial cells were treated with hunanamycin analogs for 24 hours at ranges from 0.4 to 40 μg/mL and ciprofloxacin as a control ranging from 0.03 to 10 μg/mL. The OD600 was measured using an Envision multi-modal plate reader (Perkin-Elmer, Inc.). The antibiotic assays were performed in Prof. John B. MacMillan's lab, Department of Biochemistry, University of Texas Southwestern Medical Center at Dallas, USA.
For `Cc1cc2c3c(c1C)C(C)(C)CCn3c(=O)c(=O)n2C[C@@H](O)[C@H](O)[C@H](O)CO` [Compound 3, 7,7,8,9-tetramethyl-1-((2R,3S,4R)-2,3,4,5-tetrahydroxy-pentyl)-6,7-dihydro-1H,5H-pyrido[1,2,3-de]quinoxaline-2,3-dione], the “MIC” value was 8 µg/mL (≈ 20.4 µM).
In the case of `CC1(C)CCn2c(=O)c(=O)n(C[C@@H](O)[C@H](O)[C@H](O)CO)c3cccc1c32` [Compound 8, 7,7-dimethyl-1-((2R,3S,4R)-2,3,4,5-tetrahydroxypentyl)-6,7-dihydro-1H,5H-pyrido[1,2,3-de]quinoxaline-2,3-dione], the “MIC” value was greater than 16 µg/mL.
With `CC1(C)CCn2c(=O)n(Cc3cn(CCO)nn3)c3cccc1c32` [Compound 24, 1-((1-(2-hydroxyethyl)-1H-1,2,3-triazol-4-yl)methyl)-6,6-dimethyl-5,6-dihydro-4H-imidazo[4,5,1-ij]quinolin-2(1H)-one] the “MIC” value was greater than 16 µg/mL.

Same assay, conditions: Salmonella enterica, ATCC6539, 24 h, 24 hours treatment, inoculum ~5×10^4 CFU/mL, Mueller Hinton broth
`Cc1cc2c3c(c1C)C(C)(C)CCn3c(=O)c(=O)n2C[C@H](O)[C@H](O)[C@H](O)CO` (stereo in doubt) [Compound 2, 7,7,8,9-tetramethyl-1-((2S,3S,4R)-2,3,4,5-tetrahydroxypentyl)-6,7-dihydro-1H,5H-pyrido[1,2,3-de]quinoxaline-2,3-dione] showed an MIC of 8 µg/mL (≈ 20.4 µM).
In the case of `CC1(C)CCn2c(=O)n(Cc3cn(CCO)nn3)c3cccc1c32` [1-((1-(2-hydroxyethyl)-1H-1,2,3-triazol-4-yl)methyl)-6,6-dimethyl-5,6-dihydro-4H-imidazo[4,5,1-ij]quinolin-2(1H)-one], the MIC was 8 µg/mL (≈ 24.4 µM).
`Cc1cc2c3c(c1C)C(C)(C)CCn3c(=O)c(=O)n2C[C@@H](O)[C@H](O)[C@H](O)CO` [7,7,8,9-tetramethyl-1-((2R,3S,4R)-2,3,4,5-tetrahydroxy-pentyl)-6,7-dihydro-1H,5H-pyrido[1,2,3-de]quinoxaline-2,3-dione] gave an MIC of 8 µg/mL (≈ 20.4 µM).
`Cc1cc2nc(OC[C@H](O)[C@H](O)[C@H](O)CO)c(=O)n3c2c(c1C)C(C)(C)CC3` [Compound 1, 7,7,8,9-tetramethyl-2-(((2S,3R,4R)-2,3,4,5-tetrahydroxy-pentyl)oxy)-6,7-dihydro-3H,5H-pyrido[1,2,3-de]quinoxalin-3-one] showed an MIC of 8 µg/mL (≈ 20.4 µM).
Compound `CC1(C)CCn2c(=O)c(=O)n(CC(O)CO)c3cccc1c32` (stereo not drawn) [Compound 9, 1-(2,3-dihydroxypropyl)-7,7-dimethyl-6,7-dihydro-1H,5H-pyrido[1,2,3-de]quinoxaline-2,3-dione] has an MIC of 8 µg/mL (≈ 26.3 µM).

Same assay, conditions: Salmonella enterica, ATCC6539, 24 h, 24 hours treatment, inoculum ~5×10^4 CFU/mL, Mueller Hinton broth, read-out: MIC
For `Cc1cc2c3c(c1C)C(C)(C)CCn3c(=O)c(=O)n2C[C@H](O)[C@H](O)[C@H](O)CO` [Compound 2, 7,7,8,9-tetramethyl-1-((2S,3S,4R)-2,3,4,5-tetrahydroxypentyl)-6,7-dihydro-1H,5H-pyrido[1,2,3-de]quinoxaline-2,3-dione], the MIC was 8 µg/mL (≈ 20.4 µM).
Work on `Cc1cc2c3c(c1C)C(C)(C)CCn3c(=O)c(=O)n2CC(O)CO` (stereo not drawn) [Compound 4, 1-(2,3-dihydroxypropyl)-7,7,8,9-tetramethyl-6,7-dihydro-1H,5H-pyrido[1,2,3-de]quinoxaline-2,3-dione] yielded an MIC greater than 16 µg/mL.
`Cc1cc2c3c(c1C)C(C)(C)CCn3c(=O)c(=O)n2CC(O)C(O)C(O)CO` (stereo not drawn) [Compound 5, 7,7,8,9-tetramethyl-1-(2,3,4,5-tetrahydroxypentyl)-6,7-dihydro-1H,5H-pyrido[1,2,3-de]quinoxaline-2,3-dione] showed an MIC of 4 µg/mL (≈ 10.2 µM).
Work on `CC1(C)CCn2c(=O)c(OC[C@H](O)[C@H](O)[C@H](O)CO)nc3cccc1c32` [Compound 6, 7,7-dimethyl-2-(((2S,3R,4R)-2,3,4,5-tetrahydroxypentyl)oxy)-6,7-dihydro-3H,5H-pyrido[1,2,3-de]quinoxalin-3-one] yielded an MIC greater than 16 µg/mL.
With `CC1(C)CCn2c(=O)c(=O)n(C[C@H](O)[C@H](O)[C@H](O)CO)c3cccc1c32` [Compound 7, 7,7-dimethyl-1-((2S,3S,4R)-2,3,4,5-tetrahydroxypentyl)-6,7-dihydro-1H,5H-pyrido[1,2,3-de]quinoxaline-2,3-dione] the MIC was greater than 16 µg/mL.
`CC1(C)CCn2c(=O)c(=O)n(C[C@@H](O)[C@H](O)[C@H](O)CO)c3cccc1c32` [Compound 8, 7,7-dimethyl-1-((2R,3S,4R)-2,3,4,5-tetrahydroxypentyl)-6,7-dihydro-1H,5H-pyrido[1,2,3-de]quinoxaline-2,3-dione] showed an MIC greater than 16 µg/mL.
`CCOC(=O)Cn1cc(Cn2c(=O)c(=O)n3c4c(cccc42)C(C)(C)CC3)nn1` [Compound 10, ethyl 2-(4-((7,7-dimethyl-2,3-dioxo-2,3,6,7-tetrahydro-1H,5H-pyrido[1,2,3-de]quinoxalin-1-yl)methyl)-1H-1,2,3-triazol-1-yl)acetate] showed an MIC greater than 16 µg/mL.
`COC1O[C@H](Cn2c(=O)c(=O)n3c4c(cccc42)C(C)(C)CC3)[C@@H](O)[C@H]1O` (stereo partly drawn) [Compound 11, 1-(((2R,3S,4R)-3,4-dihydroxy-5-methoxytetrahydrofuran-2-yl)methyl)-7,7-dimethyl-6,7-dihydro-1H,5H-pyrido[1,2,3-de]quinoxaline-2,3-dione] gave an MIC greater than 16 µg/mL.
For `CC1(C)CCn2c(=O)c(=O)n(C[C@@H](O)[C@H](O)CO)c3cccc1c32` [Compound 12, 7,7-dimethyl-1-((2R,3R)-2,3,4-trihydroxybutyl)-6,7-dihydro-1H,5H-pyrido[1,2,3-de]quinoxaline-2,3-dione], the MIC was greater than 16 µg/mL.
Compound `CC1(C)CCn2c(=O)c(OC[C@H](O)[C@@H](O)CO)nc3cccc1c32` [Compound 13, 7,7-dimethyl-2-((2S,3S)-2,3,4-trihydroxybutoxy)-6,7-dihydro-3H,5H-pyrido[1,2,3-de]quinoxalin-3-one] has an MIC of 16 µg/mL (≈ 47.9 µM).
With `CC(O)C(O)Cn1c(=O)c(=O)n2c3c(cccc31)C(C)(C)CC2` (stereo not drawn) [Compound 14, 1-(2,3-dihydroxybutyl)-7,7-dimethyl-6,7-dihydro-1H,5H-pyrido[1,2,3-de]quinoxaline-2,3-dione] the MIC was greater than 16 µg/mL.
With `CC1(C)CCn2c(=O)c(=O)n(CC(O)C(C)(C)O)c3cccc1c32` (stereo not drawn) [Compound 15, 1-(2,3-dihydroxy-3-methylbutyl)-7,7-dimethyl-6,7-dihydro-1H,5H-pyrido[1,2,3-de]quinoxaline-2,3-dione] the MIC was greater than 16 µg/mL.
In the case of `CC1(C)CCn2c(=O)c(OC[C@H](O)CO)nc3cccc1c32` [Compound 16, (R)-2-(2,3-dihydroxypropoxy)-7,7-dimethyl-6,7-dihydro-3H,5H-pyrido[1,2,3-de]quinoxalin-3-one], the MIC was greater than 16 µg/mL.
`CC1(C)CCn2c(=O)n(C[C@H](O)[C@H](O)[C@H](O)CO)c3cccc1c32` [Compound 21, 6,6-dimethyl-1-((2S,3S,4R)-2,3,4,5-tetrahydroxypentyl)-5,6-dihydro-4H-imidazo[4,5,1-ij]quinolin-2(1H)-one] showed an MIC of 4 µg/mL (≈ 11.9 µM).
Work on `CC1(C)CCn2c(=O)n(CC(O)CO)c3cccc1c32` (stereo not drawn) [Compound 23, 1-(2,3-dihydroxypropyl)-6,6-dimethyl-5,6-dihydro-4H-imidazo[4,5,1-ij]quinolin-2(1H)-one] yielded an MIC greater than 16 µg/mL.
Compound `CCOC(=O)Cn1cc(Cn2c(=O)n3c4c(cccc42)C(C)(C)CC3)nn1` [Compound 24b, Ethyl 2-(4-((6,6-dimethyl-2-oxo-5,6-dihydro-4H-imidazo[4,5,1-ij]quinolin-1(2H)-yl)methyl)-1H-1,2,3-triazol-1-yl)acetate] has an MIC of 8 µg/mL (≈ 21.7 µM).
`COC1O[C@H](Cn2c(=O)n3c4c(cccc42)C(C)(C)CC3)[C@@H](O)[C@H]1O` (stereo partly drawn) [Compound 25, 1-(((2R,3S,4R)-3,4-dihydroxy-5-methoxytetrahydrofuran-2-yl)methyl)-6,6-dimethyl-5,6-dihydro-4H-imidazo[4,5,1-ij]quinolin-2(1H)-one] showed an MIC of 2 µg/mL (≈ 5.74 µM).
With `CC1(C)CCn2c(=O)n(C[C@@H](O)[C@H](O)CO)c3cccc1c32` [Compound 26, 6,6-dimethyl-1-((2R,3R)-2,3,4-trihydroxybutyl)-5,6-dihydro-4H-imidazo[4,5,1-ij]quinolin-2(1H)-one] the MIC was greater than 16 µg/mL.

Tested on: Salmonella enterica
Test: not given
Conditions: against the bacterial pathogen Salmonella enterica; literature value; cited from earlier work
For `Cc1cc2c3c(c1C)C(C)(C)CCn3c(=O)c(=O)n2C[C@H](O)[C@H](O)[C@H](O)CO` (stereo in doubt) [Compound 2, 7,7,8,9-tetramethyl-1-((2S,3S,4R)-2,3,4,5-tetrahydroxypentyl)-6,7-dihydro-1H,5H-pyrido[1,2,3-de]quinoxaline-2,3-dione], the “minimum inhibitory concentration (MIC)” value is given as 12.4 µM (≈ 4.87 µg/mL).
